Source: patent US20120059005A1, “COMBINATION OF (A) A PHOSPHOINOSITIDE 3-KINASE INHIBITOR AND (B) AN ANTIDIABETIC COMPOUND FOR USE IN THE TREATMENT OF PROLIFERATIVE DISEASES” (NOVARTIS AG, priority 2009, published 2012)

Test system: A549 non-small cell lung tumors
Assay: A549 xenograft 20-day tumor growth inhibition assay
Type: in vivo, nude mice
Procedure: A549 human non-small cell lung cancer (NSCLC) cells are treated with different doses of the 2-Methyl-2-[4-(3-methyl-2-oxo-8-quinolin-3-yl-2,3-dihydro-imidazo[4, 5-c]quinolin-1-yl)-phenyl]-propionitrile monotosylate salt (also known as COMPOUND A) or 5-(2,6-di-morpholin-4-yl-pyrimidin-4-yl)-4-trifluoromethyl-pyridin-2-ylamine hydrochloride salt (also known as COMPOUND C), a single dose of metformin or both agents in combination. The A549 human NSCLC cells (ATCC-CCL-185, available from American Type Culture Collection, Rockville, Md. US) display characteristics of type II alveolar epithelial cells (Lieber et al, Int, J, Cancer 17(1): 62-70 [1976]), The A549 NSCLC cells are homozygous for mutations in the tumor suppressor genes, CDKN2A and STK11 (also called LKB1), and in KRAS. (Wellcome Trust Sanger Institute, Catalogue of Somatic Mutations in Cancer, Cosmic ID No, 905949, available at website http://www.sanger.ac.uk/peri/genetics/CGP/core_line_viewer?action=sample&name=A549.)
A549 tumor cells are grown in Kaighn's modified Ham's F12 medium containing 100 units/mL penicillin G sodium, 100 μg/mL streptomycin sulfate, 25 μg/mL gentamicin, […], 2 mM glutamine, and 1 mM sodium pyruvate. The cells are cultured in tissue culture flasks in a humidified incubator at 37° C., in an atmosphere of 5% CO2 and 95% air. The cells are harvested for injection into 9-week old female nu/nu (nude) mice (Harlan Laboratories, Indianapolis, Ind.) by detaching the monolayers with 2X trypsin and resuspending at 5×10^7cells/mL in cold phosphate-buffered saline containing 50% Matrigel.
0.2 mL of A549 cell suspension (1×10^7 cells) is injected subcutaneously in the right flank of 9-week old female flu/flu (nude) mice (Harlan Laboratories, Indianapolis, Ind.) having a body weight (BW) range of 19.9-27.3 g on Day 1 of the study, Tumors are callipered in two dimensions to monitor their growth as their mean volume approached 150-220 mm^3, Twenty-two days after implantation, the mice are sorted into 11 groups of eight or nine mice having individual tumor sizes of 108-221 mm^3. Tumor volume in mm^3 is determined using the formula [(width)^2×(length)][…], where width width of the tumor in mm and length=length of the tumor in mm. Tumor weight can be estimated with the assumption that 1 mg is equivalent to 1 mm^3 of tumor volume.
The 11 groups of nude mice are treated as follows. One group of nine mice serves as Controls (C or Control) for all analyses and is administered intraperitoneally (i,p,) 50 mM sodium acetate at pH 4 (Vehicle 1) and then administered by oral gavage (p.o.) a composition comprising 10% N-methylpyrrolidone: 90% polyethylene glycol 300 (PEG300) (Vehicle 2). […] Metformin is dissolved in 50 mM sodium acetate at pH 4 for dosing,
Compound A and Compound C are stored at −20° C. protected from light. Stock solutions (10X) in 100% N-methylpyrrolidone (NMP) are prepared every five days, aliquotted, and stored in the dark at room temperature. On each treatment day, stock solution aliquots are diluted with polyethylene glycol (PEG300) to provide the formulated drug (Compound A or Compound C) in 10% NMP: 90% PEG300. Dosing solutions are protected from light, and the formulated drug is administered within 1 hour after preparation.
For combination therapies, Compound A or Compound C are administered by oral gavage (p.o.) within 30 minutes after the intraperitoneal (i.p.) administration of metformin , except on Day 20 when Compound A or Compound C is given immediately after metformin.
Paclitaxel (Natural Pharmaceuticals, Inc., Beverly, Mass., USA) is administered by bolus tail-vein injections (i v) once daily on alternate days for five doses. Paclitaxel is dissolved in 50% ethanol and 50% Cremophor® EL to prepare a 10X stock solution stored at room temperature. On each day of dosing, an aliquot of the paclitaxel stock solution is diluted with 5% dextrose in water to yield a dosing solution containing 5% ethanol and 5% Cremophor®EL.

[1] = Paclitaxel 30 mg/kg i.v., 1x on alternate days for 5 doses, Day 20
[2] = Compound C 32.7 mg/kg p.o., 1x daily, Day 20
[3] = Compound C 54.4 mg/kg p.o., 1x daily, Day 20
[4] = Compound A 41.1 mg/kg p.o., 1x daily, Day 20
[5] = Compound A 68.5 mg/kg p.o., 1x daily, Day 20
[6] = Metformin 192.3 mg/kg i.p., 1x daily, Day 20

Question: With `CC(=O)O[C@H]1C(=O)[C@@]2(C)[C@H]([C@H](OC(=O)c3ccccc3)[C@]3(O)C[C@H](OC(=O)[C@H](O)[C@@H](NC(=O)c4ccccc4)c4ccccc4)C(C)=C1C3(C)C)[C@]1(OC(C)=O)CO[C@@H]1C[C@@H]2O` [Paclitaxel, reference compound] as the molecule, how does the “Mean Tumor Vol. Change” value [1] read?
Answer: 9 mm^3

Question: And the Regression [1]?
Answer: None

Question: And the T/C [1]?
Answer: 3%

Question: What does the source list for `Nc1cc(C(F)(F)F)c(-c2cc(N3CCOCC3)nc(N3CCOCC3)n2)cn1` [Compound C, 5-(2,6-di-morpholin-4-yl-pyrimidin-4-yl)-4-trifluoromethyl-pyridin-2-ylamine]?
Answer: Mean Tumor Vol. Change [2]: 63 mm^3; Regression [2]: None; T/C [2]: 20% (ns); Mean Tumor Vol. Change [3]: −80 mm^3; Regression [3]: None; T/T0 [3]: −48% (T/T0,

Question: Which results are given for `Cn1c(=O)n(-c2ccc(C(C)(C)C#N)cc2)c2c3cc(-c4cnc5ccccc5c4)ccc3ncc21` [Compound A, 2-Methyl-2-[4-(3-methyl-2-oxo-8-quinolin-3-yl-2,3-dihydro-imidazo[4,5-c]quinolin-1-yl)-phenyl]-propionitrile]?
Answer: Mean Tumor Vol. Change [4]: 58 mm^3; Regression [4]: None; T/C [4]: 18% (ns); Mean Tumor Vol. Change [5]: −51 mm^3; Regression [5]: 3 Partial; T/T0 [5]: −31% (T/T0,

Question: How did the “Mean Tumor Vol. Change” value [6] turn out when `CN(C)C(=N)N=C(N)N` [Metformin, dimethyldiguanide, reference compound] was run?
Answer: 221 mm^3

Question: And the Regression [6]?
Answer: None

Question: And the “activity in the 20-day tumor growth inhibition assay” value (metformin monotherapy at 192.3 mg/kg)?
Answer: did not appear active

Question: And the T/C (mouse, in vivo)?
Answer: 69% (ns)
